Measurements taken from patent publication US11713309B2, “Solid forms of Cerdulatinib” (Alexion Pharmaceuticals, Inc., priority 2018, dated 2023).
Where a name gives a salt, the structure may show the parent alone. Read-outs that look alike come from different tables or passages of the source.

Experiments:
Assay type in all cases: physicochemical
[1] = Overall solid form comparison (summary statements)
Excerpt: The hydration behavior of Compound I HCl Form I is reversible, such that rehydration of Compound I HCl Form I returns the single, crystalline form, allowing Compound I HCl Form I be stored at ambient conditions without desiccant.

[2] = Thermodynamic aqueous solubility by HPLC; conditions: HPLC grade water, 25° C., 24 hours; second scale up material; listed as Comp. I HCl (formed using aqueous HCl) Form I
Method: The suspension was equilibrated at 25° C. for 24 hours. The suspension was then passed through a filter into an HPLC vial. The filtrate was then diluted by an appropriate factor. Quantification was executed by HPLC with reference to a standard solution of approximately 1 mg·mL^−1 in acetonitrile:water (1:1). Different volumes of the standard, diluted and undiluted sample solutions were injected. […] HPLC method parameters are described in Table 1 and Table 2.
Analysis was performed on an Agilent 1100 series liquid chromatography, equipped with a UV detector (DAD or VWD) @ 254 nm and using Chemstation Rev.B.01.03 software for data processing.
The solubility of the salts/co-crystals of Compound I prepared from the second scale up process was analyzed. The materials recovered after the solubility analysis were evaluated by XRPD to observe any form changes.

[3] = Approximate kinetic solubility in simulated biological fluids; conditions: about 37° C.; for solubility kinetic at 2 h: equilibrated for 2 hrs; for solubility kinetic at 1 day: equilibrated for 1 day
Excerpt: A summary of the approximate kinetic solubility of Compound I HCl Form I in organic solvents, simulated biological fluids, and common pharmaceutical co-solvents is provided in Tables 8-10, respectively.

[4] = simulated gastric fluid, SGF (pH 1.2)

Stability relative to the other solid forms / salts of Compound I ([1]; listed as Compound I mono-HCl Form I): superior thermodynamically stability
Stability of the solid form ([1]; room temperature, ambient conditions): stable
solubility [2]: 350 µg/mL
solubility kinetic at 2 h ([3]; FaSSIF (pH 6.1)): 3 µg/mL
solubility kinetic at 1 day ([3]; FaSSIF (pH 6.1)): 3 µg/mL
solubility kinetic at 2 h ([3]; FeSSIF (pH 5.0)): 35 µg/mL
solubility kinetic at 1 day ([3]; FeSSIF (pH 5.0)): 39 µg/mL
solubility kinetic at 2 h [3, 4]: 67 µg/mL
solubility kinetic at 1 day [3, 4]: 78 µg/mL
Structure (SMILES): CCS(=O)(=O)N1CCN(c2ccc(Nc3ncc(C(N)=O)c(NC4CC4)n3)cc2)CC1 [Compound I HCl Form I, 4-(cyclopropylamino)-2-(4-(4-(ethylsulfonyl)piperazin-1-yl)phenylamino)pyrimidine-5-carboxamide]
Stability relative to the other solid forms / salts of Compound I [1]: most physico-chemically stable solid form
